Source: patent publication US20250064941A1, “SIGLEC LIGANDS, CONJUGATES, AND METHODS OF USE THEREOF” (Osprey Biopharmaceuticals, Inc., priority 2023, published 2025)
pKd: −log10 of the molar value.

What was measured:
[1] = target: T1, human Siglec-2/CD22 protein (Homo sapiens, UniProt P20273); experiment: SPR binding affinity to human CD22; settings: steady-state analysis
T1 construct: purchased Acro Biosystems SI2-H82E3
T1 sequence (P20273 20-847): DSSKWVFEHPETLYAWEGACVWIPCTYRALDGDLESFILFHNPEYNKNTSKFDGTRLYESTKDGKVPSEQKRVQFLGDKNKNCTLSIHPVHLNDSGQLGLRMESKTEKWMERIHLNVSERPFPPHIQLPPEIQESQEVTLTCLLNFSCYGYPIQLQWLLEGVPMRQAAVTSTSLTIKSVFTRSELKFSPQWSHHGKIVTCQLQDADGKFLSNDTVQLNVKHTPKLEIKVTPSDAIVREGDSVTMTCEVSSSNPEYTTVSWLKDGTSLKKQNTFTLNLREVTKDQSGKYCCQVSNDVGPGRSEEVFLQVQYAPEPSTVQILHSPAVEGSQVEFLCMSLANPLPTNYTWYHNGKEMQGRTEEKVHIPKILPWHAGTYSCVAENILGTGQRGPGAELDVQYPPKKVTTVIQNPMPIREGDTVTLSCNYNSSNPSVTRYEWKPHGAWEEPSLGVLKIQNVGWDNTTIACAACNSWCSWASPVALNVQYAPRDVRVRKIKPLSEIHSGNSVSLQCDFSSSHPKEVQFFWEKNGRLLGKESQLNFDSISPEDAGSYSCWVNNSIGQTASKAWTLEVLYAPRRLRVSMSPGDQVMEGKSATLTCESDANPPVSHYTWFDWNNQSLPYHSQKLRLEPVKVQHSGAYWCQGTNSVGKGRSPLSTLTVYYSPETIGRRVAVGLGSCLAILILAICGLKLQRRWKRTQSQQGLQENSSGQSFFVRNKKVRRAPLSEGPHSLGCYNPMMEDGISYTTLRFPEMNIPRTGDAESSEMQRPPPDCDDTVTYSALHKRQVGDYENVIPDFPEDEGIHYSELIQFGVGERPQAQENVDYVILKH
Outline: (§1)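 Using a Biacore 8K, compounds were tested against biotinylated CD22 captured after sialidase treatment. The running buffer held 1% DMSO, corrected with a 0.5–2% DMSO series. Affinity was derived by steady-state analysis.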

cynomolgus Siglec-2/CD22 = cynomolgus Siglec-2/CD22 (Macaca fascicularis, UniProt A0A2K5WCZ6); experiment: biochemical; assay type: binding; settings: SPR, steady-state analysis; read-out: Affinity cyno CD22
Outline: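 Compound binding measured by steady-state SPR analysis, 120 s dissociation, in HEPES-NaCl-Tween buffer pH 7.5 containing 1% DMSO, DMSO solvent-corrected. Surface: cyno CD22, sialic acids first stripped by SialoExo for 4 h at 37° C., then amine-coupled onto CM5.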

[2] = target: T2, mouse Siglec-2-Fc-Avi (CD22) (Mus musculus, UniProt P35329); experiment: SPR binding affinity to mouse CD22; settings: steady-state analysis
T2 construct: made in house
T2 sequence (P35329 22-708 limits assumed): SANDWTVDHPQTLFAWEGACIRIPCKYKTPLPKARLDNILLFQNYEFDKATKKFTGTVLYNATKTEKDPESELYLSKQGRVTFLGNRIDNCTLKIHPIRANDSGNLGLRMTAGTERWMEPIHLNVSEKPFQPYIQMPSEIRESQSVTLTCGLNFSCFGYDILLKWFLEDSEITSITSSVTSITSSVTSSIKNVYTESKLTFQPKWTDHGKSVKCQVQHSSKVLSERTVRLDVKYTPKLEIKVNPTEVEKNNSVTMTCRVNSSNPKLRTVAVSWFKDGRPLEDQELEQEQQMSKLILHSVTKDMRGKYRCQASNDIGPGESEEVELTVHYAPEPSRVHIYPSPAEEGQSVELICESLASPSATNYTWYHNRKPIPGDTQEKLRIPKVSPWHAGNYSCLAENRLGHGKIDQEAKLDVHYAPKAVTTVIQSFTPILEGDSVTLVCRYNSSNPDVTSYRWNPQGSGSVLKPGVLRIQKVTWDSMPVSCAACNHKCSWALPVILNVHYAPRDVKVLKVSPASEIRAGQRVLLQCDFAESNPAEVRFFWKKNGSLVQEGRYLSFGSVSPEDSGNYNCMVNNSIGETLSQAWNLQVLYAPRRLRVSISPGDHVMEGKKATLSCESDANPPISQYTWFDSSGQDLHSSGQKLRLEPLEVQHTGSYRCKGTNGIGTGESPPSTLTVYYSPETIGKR
Outline: as §1

cynomolgus Siglec-2/CD22, sequence (A0A2K5WCZ6 entry or part of it): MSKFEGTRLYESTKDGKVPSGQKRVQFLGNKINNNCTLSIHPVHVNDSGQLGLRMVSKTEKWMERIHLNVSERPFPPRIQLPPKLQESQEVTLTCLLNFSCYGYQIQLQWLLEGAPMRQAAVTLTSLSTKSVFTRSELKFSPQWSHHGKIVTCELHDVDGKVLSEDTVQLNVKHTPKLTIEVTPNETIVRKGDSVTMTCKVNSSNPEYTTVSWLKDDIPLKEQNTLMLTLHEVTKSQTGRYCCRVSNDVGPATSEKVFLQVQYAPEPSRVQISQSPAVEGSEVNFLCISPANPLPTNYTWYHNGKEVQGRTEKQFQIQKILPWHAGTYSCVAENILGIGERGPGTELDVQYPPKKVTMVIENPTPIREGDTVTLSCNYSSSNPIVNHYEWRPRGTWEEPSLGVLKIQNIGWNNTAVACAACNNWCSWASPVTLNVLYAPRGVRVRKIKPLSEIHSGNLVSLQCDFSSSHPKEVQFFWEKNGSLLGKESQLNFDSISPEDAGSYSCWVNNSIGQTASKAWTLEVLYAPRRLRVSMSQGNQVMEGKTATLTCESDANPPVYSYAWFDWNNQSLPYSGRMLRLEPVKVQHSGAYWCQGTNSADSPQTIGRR

Structure (SMILES)	pKd [1]	pKd (cynomolgus Siglec-2/CD22)	pKd [2]
C#CCOCCOCCO[C@]1(C(=O)O)C[C@H](O)[C@@H](NC(=O)CO)[C@H]([C@@H](F)[C@H](O)CNC(=O)Cc2ccc(-c3ccccc3)cc2)O1 [Compound 32]	< 5.00	< 5.00	< 5.00
C#CCCOc1ccc(CO[C@]2(C(=O)O)C[C@H](O)[C@@H](NC(N)=O)[C@H]([C@H](O)[C@H](O)CNC(=O)Cc3ccc(Cl)cc3)O2)cc1 [Compound 205, (2R,4S,5R,6R)-2-((4-(but-3-yn-1-yloxy)benzyl)oxy)-6-((1R,2R)-3-(2-(4-chlorophenyl)acetamido)-1,2-dihydroxypropyl)-4-hydroxy-5-ureidotetrahydro-2H-pyran-2-carboxylic acid]	> 6.00	> 6.00	> 6.00
C#CCOCCOCCO[C@]1(C(=O)O)C[C@H](O)[C@@H](NC(=O)CO)[C@H]([C@H](O)[C@H](O)CNC(=O)Cc2cc(F)cc(C(F)(F)F)c2)O1 [Compound 133, (2R,4S,5R,6R)-6-((1R,2R)-3-(2-(3-fluoro-5-(trifluoromethyl)phenyl)acetamido)-1,2-dihydroxypropyl)-4-hydroxy-5-(2-hydroxyacetamido)-2-(2-(2-(prop-2-yn-1-yloxy)ethoxy)ethoxy)tetrahydro-2H-pyran-2-carboxylic acid]	> 6.00	> 6.00	< 5.00
C#CCCOc1ccc(CO[C@]2(C(=O)O)C[C@H](O)[C@@H](NC(=O)CO)[C@H]([C@H](O)[C@H](O)CNC(=O)Cc3ccc(Cl)c(O)c3)O2)cc1 [Compound 135, (2R,4S,5R,6R)-2-((4-(but-3-yn-1-yloxy)benzyl)oxy)-6-((1R,2R)-3-(2-(4-chloro-3-hydroxyphenyl)acetamido)-1,2-dihydroxypropyl)-4-hydroxy-5-(2-hydroxyacetamido)tetrahydro-2H-pyran-2-carboxylic acid]	> 6.00	> 6.00	> 6.00
C#CCCCCCCO[C@]1(C(=O)O)C[C@H](O)[C@@H](NC(=O)CO)[C@H]([C@H](O)[C@H](O)CNC(=O)C(F)(F)c2ccccc2)O1 [Compound 42, (2R,4S,5R,6R)-6-((1R,2R)-3-(2,2-difluoro-2-phenylacetamido)-1,2-dihydroxypropyl)-4-hydroxy-5-(2-hydroxyacetamido)-2-(oct-7-yn-1-yloxy) tetrahydro-2H-pyran-2-carboxylic acid]	> 6.00	> 6.00	5.00 to 6.00
C#CCOCCNC(=O)CCCCCCO[C@]1(C(=O)O)C[C@H](O)[C@@H](NC(=O)CO)[C@H]([C@H](O)[C@H](O)CNC(=O)Cc2ccc(C(F)F)cc2)O1 [Compound 213, (2R,4S,5R,6R)-6-((1R,2R)-3-(2-(4-(difluoromethyl)phenyl)acetamido)-1,2-dihydroxypropyl)-4-hydroxy-5-(2-hydroxyacetamido)-2-((7-oxo-7-((2-(prop-2-yn-1-yloxy)ethyl)amino)heptyl)oxy)tetrahydro-2H-pyran-2-carboxylic acid]	> 6.00	> 6.00	> 6.00
C#CCCOc1ccc(CO[C@]2(C(=O)O)C[C@H](O)[C@@H](NC(=O)CO)[C@H]([C@H](O)[C@H](O)CNC(=O)C3(c4ccccc4)CC3)O2)cc1 [Compound 173, (2R,4S,5R,6R)-2-((4-(but-3-yn-1-yloxy)benzyl)oxy)-6-((1R,2R)-1,2-dihydroxy-3-(1-phenylcyclopropane-1-carboxamido)propyl)-4-hydroxy-5-(2-hydroxyacetamido)tetrahydro-2H-pyran-2-carboxylic acid]	5.00 to 6.00	5.00 to 6.00	< 5.00
C#CCCOc1ccc(CS[C@]2(C(=O)O)C[C@H](O)[C@@H](NC(=O)CO)[C@H]([C@H](O)[C@H](O)CNC(=O)Cc3cccc(O)c3)O2)cc1 [Compound 149, (2S,4S,5R,6R)-2-((4-(but-3-yn-1-yloxy)benzyl)thio)-6-((1R,2R)-1,2-dihydroxy-3-(2-(3-hydroxyphenyl)acetamido)propyl)-4-hydroxy-5-(2-hydroxyacetamido)tetrahydro-2H-pyran-2-carboxylic acid]	> 6.00	5.00 to 6.00	5.00 to 6.00

Continued, values first:

pKd [1]	pKd (cynomolgus Siglec-2/CD22)	pKd [2]	Structure (SMILES)
5.00 to 6.00	5.00 to 6.00	5.00 to 6.00	CC(=O)NCCOCCOCCOCCOCCNc1c(NCCOCCOCCO[C@]2(C(=O)O)C[C@H](O)[C@@H](NC(=O)CO)[C@H]([C@H](O)[C@H](O)CNC(=O)Cc3ccc(Cl)cc3)O2)c(=O)c1=O [Cpd. 247, (2R,4S,5R,6R)-6-((1R,2R)-3-(2-(4-chlorophenyl)acetamido)-1,2-dihydroxypropyl)-2-(2-(2-(2-((3,4-dioxo-2-((2-oxo-6,9,12,15-tetraoxa-3-azaheptadecan-17-yl)amino)cyclobut-1-en-1-yl)amino)ethoxy)ethoxy)ethoxy)-4-hydroxy-5-(2-hydroxyacetamido) tetrahydro-2H-pyran-2-carboxylic acid]
> 6.00	> 6.00	> 6.00	C#CCOCCCCCCS[C@]1(C(=O)O)C[C@H](O)[C@@H](NC(=O)CO)[C@H]([C@H](O)[C@H](O)CNC(=O)Cc2ccc(Cl)cc2)O1 [Compound 186, (2S,4S,5R,6R)-6-((1R,2R)-3-(2-(4-chlorophenyl)acetamido)-1,2-dihydroxypropyl)-4-hydroxy-5-(2-hydroxyacetamido)-2-((6-(prop-2-yn-1-yloxy)hexyl)thio)tetrahydro-2H-pyran-2-carboxylic acid]
> 6.00	> 6.00	5.00 to 6.00	O=C(Cc1ccc(Cl)cc1)NC[C@@H](O)[C@@H](O)[C@@H]1O[C@@](SCc2cccc(C(=O)O)c2)(C(=O)O)C[C@H](O)[C@H]1NC(=O)CO [Compound 116, (2S,4S,5R,6R)-2-((3-carboxybenzyl)thio)-6-((1R,2R)-3-(2-(4-chlorophenyl)acetamido)-1,2-dihydroxypropyl)-4-hydroxy-5-(2-hydroxyacetamido)tetrahydro-2H-pyran-2-carboxylic acid]
> 6.00	5.00 to 6.00	> 6.00	C#CCOc1ccc(CO[C@]2(C(=O)O)C[C@H](O)[C@@H](NC(=O)CO)[C@H]([C@H](O)[C@H](O)CNC(=O)Cc3ccc(-c4ccc(O)cc4)cc3Cl)O2)cc1 [Compound 52, (2R,4S,5R,6R)-6-((1R,2R)-3-(2-(3-chloro-4′-hydroxy-[1,1′-biphenyl]-4-yl)acetamido)-1,2-dihydroxypropyl)-4-hydroxy-5-(2-hydroxyacetamido)-2-((4-(prop-2-yn-1-yloxy)benzyl)oxy)tetrahydro-2H-pyran-2-carboxylic acid]
5.00 to 6.00	> 6.00	5.00 to 6.00	C#CCOCCCCCCO[C@]1(C(=O)O)C[C@H](O)[C@@H](NC(=O)CO)[C@H]([C@H](O)[C@H](O)CNC(=O)Cc2ccc(C#N)cc2)O1 [Compound 162, (2R,4S,5R,6R)-6-((1R,2R)-3-(2-(4-cyanophenyl)acetamido)-1,2-dihydroxypropyl)-4-hydroxy-5-(2-hydroxyacetamido)-2-((6-(prop-2-yn-1-yloxy)hexyl)oxy)tetrahydro-2H-pyran-2-carboxylic acid]
